In US20230322756A1, “FUSED IMIDAZOLE DERIVATIVE, PREPARATION METHOD THEREFOR, AND MEDICAL USE THEREOF” (JIANGSU HENGRUI MEDICINE CO., LTD., priority 2020, published 2023):

Tests used:
[1] = biological target: hERG potassium channel (Homo sapiens (Human), UniProt Q12809); experiment: Blocking effect on hERG potassium currents, manual patch-clamp in CHO cells stably expressing hERG channel; format: cell-based; settings: read-out: IC50 for the blocking effect on the hERG potassium ion channel
Text: This example is intended to assess the blocking effect of the compounds of the present disclosure and positive compound 1 (see the compound of Example 7 on page 125 of WO2019239319A1) on hERG potassium currents in a stable cell strain transfected with an hERG potassium channel by a manual patch-clamp assay. The structure of positive compound 1 is shown below:
The cells used in this experiment were from a CHO cell line (provided by Sophion Bioscience, Denmark) transfected with hERG cDNA and stably expressing hERG channel at cell passage number of P5. Cells were cultured in a medium containing the following components (all from Invitrogen): Ham's F12 medium, 10% (v/v) inactivated fetal bovine serum, 100 μg/mL hygromycin B, and 100 μg/mL geneticin.
CHO hERG cells were grown in a culture dish containing the above culture medium and cultured in an incubator at 37° C. with 5% CO2. 24-48 h before the electrophysiological experiment, CHO hERG cells were transferred to round slides placed in the culture dish and grown in the same culture medium and culture conditions as above. The density of CHO hERG cells on each round slide was required to achieve the requirement that most cells were independent and individual.
In this experiment, a manual patch-clamp system (HEKA EPC-10 signal amplifier and digital conversion system, purchased from HEKA Electronics, Germany) was used for whole cell current recording. Round slides with CHO hERG cells grown on the surface were placed in an electrophysiological recording chamber under an inverted microscope. The chamber was continuously perfused with extracellular fluid (approximately 1 mL/min). The experimental procedures were performed by conventional whole-cell patch-clamp current recording technology. Unless otherwise stated, the experiment was performed at room temperature ([…]). The cells were clamped at a voltage of −80 mV. The cell clamp voltage was depolarized to +20 mV to activate the hERG potassium channel, and then clamped to −50 mV 5 s later to eliminate inactivation and generate tail currents. The tail current peak was used as a value for the numeral value of the hERG current. After the hERG potassium currents recorded in the above step were stable under the continuous extracellular fluid perfusion in the recording chamber, the drug to be tested could be added for perfusion until the inhibitory effect of the drug on the hERG current reached a stable state. Generally, the last superposition of 3 consecutive current recording lines is used as a criterion for determining whether a stable state is reached. […]
The experimental data were analyzed by data analysis software supplied by HEKA Patchmaster(V2x73.2), Microsoft Excel, and Graphpad Prism 5.0. […]

[2] = biological target: CYP2C19 (Homo sapiens (Human), UniProt P33261); experiment: Inhibition of human liver microsome CYP450 enzyme, CYP2C19 (S)-mephenytoin site; format: in vitro ADME; settings: human liver microsomes, probe substrate (S)-mephenytoin
Description: (§1) I. Materials and Instruments • 1. Phosphate buffered saline (20×PBS, purchased from Sangon); • 2. NADPH (ACROS, A2646-71-1); • 3. Human liver microsome (Corning Gentest, Cat No. 452161, Lot No. 905002, Donor35); • 4. ABI QTrap 4000 LC-MS System (AB Sciex); • 5. ZORBAX Extend-C18, 3×50 mm, 3.5 μm (Agilent, USA); • 6. CYP probe substrate.
(§2) An appropriate amount of human liver microsome stock solution (20 mg/mL) was diluted to obtain a 0.25 mg/mL microsome solution with 7.5 mM MgCl2 solution for later use (prepared right before use).
(§3) b. An appropriate amount of the stock solution was precisely pipetted, and diluted into series solution I at the concentrations of 10 mM, 3 mM, 1 mM, 0.3 mM, 0.03 mM and 0.003 mM with an appropriate amount of DMSO solution. An appropriate amount of the above series solution I was precisely pipetted, and diluted to obtain series solution II at the concentrations of 3 mM, 1 mM, 0.3 mM, 0.1 mM, 0.03 mM, 0.003 mM and 0.0003 mM with an appropriate amount of acetonitrile. An appropriate amount of the above series solution II was precisely pipetted, and diluted with PBS to obtain a working solution at the concentrations of 150 μM, 50 μM, 15 μM, 5 μM, 1.5 μM, 0.15 μM and 0.015 μM for later use.
(§4) 3. Procedures • 1) 40 μL of human liver microsome solution (0.25 mg/mL), 20 μL of probe substrate solution and 20 μL of test compound solution were precisely pipetted into a 96-well plate and pre-incubated for 5 min under a water bath at 37° C. • 2) After 5 min of pre-incubation, the mixture was taken out, 20 μL of 5 mM NADPH solution was added to initiate the reaction, and the resulting mixture was incubated for 30 min under a water bath at 37° C. […]
(§5) The values were calculated by Graphpad Prism to obtain the IC50 values for the inhibition of drugs on CYP1A2 phenacetin, CYP2C19 (S)-mephenytoin and CYP3A4M midazolam sites of metabolism in human liver microsomes, as shown in Table 7.

[3] = biological target: CYP1A2 (Homo sapiens (Human), UniProt P05177); experiment: Inhibition of human liver microsome CYP450 enzyme, CYP1A2 phenacetin site; format: in vitro ADME; settings: human liver microsomes, probe substrate phenacetin
Description: as §1, §2, §3, §4, §5

[4] = biological target: CYP3A4M (Homo sapiens (Human), UniProt P08684); experiment: Inhibition of human liver microsome CYP450 enzyme, CYP3A4M midazolam site; format: in vitro ADME; settings: human liver microsomes, probe substrate midazolam
Description: as §1, §2, §3, §4, §5

Chain of CYP3A4M (P08684 whole entry): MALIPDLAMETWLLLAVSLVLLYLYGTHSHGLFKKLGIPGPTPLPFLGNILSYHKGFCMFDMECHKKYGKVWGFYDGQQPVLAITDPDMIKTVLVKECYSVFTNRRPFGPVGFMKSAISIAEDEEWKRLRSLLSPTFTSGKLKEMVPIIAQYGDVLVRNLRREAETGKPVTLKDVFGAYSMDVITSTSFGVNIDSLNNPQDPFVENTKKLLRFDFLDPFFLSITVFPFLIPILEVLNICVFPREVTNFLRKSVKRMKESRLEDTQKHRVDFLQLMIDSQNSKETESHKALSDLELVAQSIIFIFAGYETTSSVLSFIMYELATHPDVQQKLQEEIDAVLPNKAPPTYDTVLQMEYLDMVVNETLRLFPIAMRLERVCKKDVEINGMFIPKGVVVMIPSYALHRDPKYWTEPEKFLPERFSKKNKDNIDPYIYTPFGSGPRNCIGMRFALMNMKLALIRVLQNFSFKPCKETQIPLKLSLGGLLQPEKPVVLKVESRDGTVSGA
Chain of CYP2C19 (P33261 whole entry): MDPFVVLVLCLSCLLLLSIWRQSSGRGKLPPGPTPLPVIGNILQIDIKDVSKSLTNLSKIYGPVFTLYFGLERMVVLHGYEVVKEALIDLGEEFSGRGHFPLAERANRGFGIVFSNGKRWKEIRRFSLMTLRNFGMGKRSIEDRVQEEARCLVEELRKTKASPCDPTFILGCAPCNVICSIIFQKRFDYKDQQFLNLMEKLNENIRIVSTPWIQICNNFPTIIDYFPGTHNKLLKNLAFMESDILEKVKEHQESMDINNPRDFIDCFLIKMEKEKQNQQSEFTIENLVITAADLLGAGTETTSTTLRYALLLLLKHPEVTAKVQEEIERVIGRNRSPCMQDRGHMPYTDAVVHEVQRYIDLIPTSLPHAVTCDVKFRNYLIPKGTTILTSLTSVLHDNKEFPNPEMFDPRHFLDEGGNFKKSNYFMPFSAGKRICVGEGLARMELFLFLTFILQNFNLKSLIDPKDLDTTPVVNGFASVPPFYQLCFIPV
Chain of CYP1A2 (P05177 whole entry): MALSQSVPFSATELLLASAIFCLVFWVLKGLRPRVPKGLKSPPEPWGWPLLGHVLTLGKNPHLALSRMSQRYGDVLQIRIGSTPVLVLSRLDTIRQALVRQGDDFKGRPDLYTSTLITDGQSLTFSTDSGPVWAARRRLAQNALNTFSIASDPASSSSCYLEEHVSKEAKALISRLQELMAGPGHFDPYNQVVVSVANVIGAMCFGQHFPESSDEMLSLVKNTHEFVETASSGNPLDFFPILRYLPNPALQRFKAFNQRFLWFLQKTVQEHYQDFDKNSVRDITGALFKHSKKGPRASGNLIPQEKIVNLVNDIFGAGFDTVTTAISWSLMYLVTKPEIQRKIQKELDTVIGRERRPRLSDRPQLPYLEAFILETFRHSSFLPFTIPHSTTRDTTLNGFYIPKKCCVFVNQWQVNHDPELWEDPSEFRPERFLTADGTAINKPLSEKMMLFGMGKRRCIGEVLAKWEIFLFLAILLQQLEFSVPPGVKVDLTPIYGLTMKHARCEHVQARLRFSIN
Chain of hERG potassium channel (Q12809 whole entry): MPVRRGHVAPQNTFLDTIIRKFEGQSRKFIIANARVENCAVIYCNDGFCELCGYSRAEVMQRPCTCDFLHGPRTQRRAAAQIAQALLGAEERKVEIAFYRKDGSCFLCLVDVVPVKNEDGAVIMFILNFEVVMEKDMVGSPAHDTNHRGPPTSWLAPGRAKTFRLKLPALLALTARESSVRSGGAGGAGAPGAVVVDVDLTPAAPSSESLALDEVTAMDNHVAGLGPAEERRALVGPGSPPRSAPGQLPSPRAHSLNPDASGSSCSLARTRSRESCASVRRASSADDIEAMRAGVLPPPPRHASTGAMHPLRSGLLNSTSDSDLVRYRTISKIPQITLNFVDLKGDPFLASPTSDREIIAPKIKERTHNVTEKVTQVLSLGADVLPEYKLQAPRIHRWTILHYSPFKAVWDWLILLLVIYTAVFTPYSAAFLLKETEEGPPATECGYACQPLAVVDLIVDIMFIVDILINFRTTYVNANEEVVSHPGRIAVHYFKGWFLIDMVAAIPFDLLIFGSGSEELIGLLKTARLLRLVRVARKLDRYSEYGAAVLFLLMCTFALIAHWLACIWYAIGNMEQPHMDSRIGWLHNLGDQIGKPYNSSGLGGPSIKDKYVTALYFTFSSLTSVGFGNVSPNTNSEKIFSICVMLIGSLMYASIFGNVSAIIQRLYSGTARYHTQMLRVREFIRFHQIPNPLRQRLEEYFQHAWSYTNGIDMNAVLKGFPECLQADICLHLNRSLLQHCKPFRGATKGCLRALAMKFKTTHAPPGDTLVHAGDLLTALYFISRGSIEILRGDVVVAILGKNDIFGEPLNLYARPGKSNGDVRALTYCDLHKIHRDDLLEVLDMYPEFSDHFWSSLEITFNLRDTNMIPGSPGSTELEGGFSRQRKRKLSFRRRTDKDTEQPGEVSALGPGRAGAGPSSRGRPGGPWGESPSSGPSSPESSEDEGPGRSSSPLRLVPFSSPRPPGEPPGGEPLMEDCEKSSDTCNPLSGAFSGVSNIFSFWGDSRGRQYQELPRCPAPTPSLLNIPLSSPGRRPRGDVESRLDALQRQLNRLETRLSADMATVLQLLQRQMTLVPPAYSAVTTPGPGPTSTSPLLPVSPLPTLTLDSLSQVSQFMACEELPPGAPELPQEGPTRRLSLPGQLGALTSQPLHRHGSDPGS

Row | IC50 [2] | IC50 [3] | IC50 [4] | Structure (SMILES) | IC50 [1]
1 | > 30 µM | > 30 µM | > 30 µM | O=C(O)c1ccc2nc(CN3CCC(c4cccc5c4O[C@@H](c4ccc(Cl)cc4F)CO5)CC3)n(C[C@@H]3CCO3)c2c1 [Example 4, 2-((4-((S)-3-(4-Chloro-2-fluorophenyl)-2,3-dihydrobenzo[b][1,4]dioxan-5-yl)piperidin-1-yl)methyl)-1-(((S)-oxetan-2-yl)methyl)-1H-benzo[d]imidazole-6-carboxylic acid] | 10.1 µM
2 | > 30 µM | > 30 µM | > 30 µM | O=C(O)c1ccc2nc(CN3CCC(c4cccc5c4O[C@@H](c4ccc(Cl)cc4F)CO5)CC3)n(C[C@@H]3CCO3)c2n1 [Example 5, 2-((4-((S)-3-(4-Chloro-2-fluorophenyl)-2,3-dihydrobenzo[b][1,4]dioxan-5-yl)piperidin-1-yl)methyl)-3-((S)-oxetan-2-ylmethyl)-3H-imidazo[4,5-b]pyridine-5-carboxylic acid] | 25.9 µM
3 | 7.4 µM | 12.5 µM | 25.5 µM | C[C@]1(c2ccc(Cl)cc2F)Oc2cccc(C3CCN(Cc4nc5ccc(C(=O)O)cc5n4C[C@@H]4CCO4)CC3)c2O1 [Positive compound 1, reference compound] | 4.6 µM
